# Legend:
# [1] = system: IMR90 normal diploid fibroblasts; experiment: Northern blot of SISP-1 mRNA induction by genotoxic drugs; format: cell-based; conditions: IMR90 cells; etoposide 50 μM or CPT 600 nM, 24-48 hours; FIG. 4A
# Protocol: IMR90 normal diploid fibroblasts (Obtained from ATCC) were cultured in Dulbecco's modified Eagle's medium (DMEM, Invitrogen)) containing 10% fetal bovine serum (FBS, Hyclone), 100 units/ml of penicillin, and 100 μg/ml of streptomycin at 37° C. […] Then, total RNA was extracted, denatured, electrophoresed through a 1% agarose-formaldehyde gel and transferred to a nylon membrane. Hybridization was performed with ^32P-labeled probes, SISP1, p21 or 36B4 (a loading control) prepared by the randomly primed DNA labeling method.
# [2] = system: HCT116 colon carcinoma cells; experiment: Cell death Elisa (DNA fragmentation) after adenoviral SISP-1 infection; format: cell-based, human; conditions: etoposide 30 μM, 24 hours, 12 hour post infection
# Protocol: (§1) Next, the inventor investigated the apoptotic effects of SISP-1 expression in human colon cancer cells and breast carcinoma cells by using adenovirus expressing SISP-1. […] Adenoviruses expressing HA-tagged SISP-1 (Ad-SISP-1) or GFP (Ad-GFP as a control) were generated, amplified and titrated. HCT 116 colon carcinoma cells and MDAMB435 breast cancer cells were grown to 50-70% confluency and infected with recombinant adenovirus at multiplicity of infection (MOI) of 15-30. […] Then, cell death rate was measured by DNA fragmentation assay (Cell death Elisa kit, Roche).
# [3] = system: MDAMB435 breast cancer cells; experiment: as above; format: cell-based, human; conditions: etoposide 30 μM, 24 hours, 12 hour post infection
# Protocol: as §1
# U2OS osteosarcoma cells [4] = experiment: Cell-Death Elisa, tetracycline-inducible SISP-1 plus etoposide; format: cell-based; conditions: SISP-1 or etoposide (15 μM) alone, FIG. 9A
# Protocol: U2OS-tet-on-SISP-1 cells were generated by isolating tetracycline regulated stable-clones expressing SISP-1 upon tetracycline addition (doxycycline, Sigma). U2OS-SISP-1 cells were cultured in the presence or absence of doxycycline (1 μg/ml) for 24 hours.
# U2OS osteosarcoma cells [5] = experiment: Etoposide-induced cell death with inducible SISP-1 (FIG. 10); format: cell-based; conditions: over 48 hours
# Source text: (§2) The present inventor further examined whether SISP-1 could also sensitize U2OS cells that is known to be quite resistant to chemo-drugs.
# (§3) The inventor re-evaluated this effect in a rapidly growing human bladder carcinoma cell line, EJ, since SISP-1 may be used a strong candidate as a new sensitizing molecule that improves the therapeutic efficacy and minimizes the toxicity of chemo-drugs. To further confirm the sensitizing effects of SISP-1 expression in a combination of chemo-drugs, we generated tumor cells containing the tetracycline-regulated inducible expression of SISP-1 using U2OS and EJ lines.
# [6] = system: EJ bladder carcinoma cells; experiment: as above; format: cell-based, human; conditions: over 48 hours
# Source text: as §2, §3
Compound,expression of SISP-1 mRNA [1],sensitization of SISP-1 overexpressing cells by etoposide [2],sensitization of SISP-1 overexpressing cells by etoposide [3],cell death by single treatment (U2OS osteosarcoma cells [4]),cell death by etoposide itself (U2OS osteosarcoma cells [5]),cell death by etoposide itself [6]
"CC[C@@]1(O)C(=O)OCc2c1cc1n(c2=O)Cc2cc3ccccc3nc2-1 [CPT, camptothecin]",induced,–,–,–,–,–
"COc1cc([C@@H]2c3cc4c(cc3[C@@H](O[C@@H]3O[C@@H]5CO[C@@H](C)O[C@H]5[C@H](O)[C@H]3O)[C@H]3COC(=O)[C@H]23)OCO4)cc(OC)c1O [etoposide, reference compound]",–,selectively sensitized,selectively sensitized,did not induce cell death,induced a limited cell death,induced a limited cell death
